Source: EP3057949B1, “SECONDARY ALCOHOL QUINOLINYL MODULATORS OF ROR GAMMA T” (Janssen Pharmaceutica NV, priority 2013, dated 2015)
Where a name gives a salt, the structure may show the parent alone.

Tests used:
[1] = target: T1, human RORγt ligand binding domain (RORγt LBD) (Homo sapiens, UniProt P51449); test: ThermoFluor® Assay (RORγt thermal shift binding); conditions: 0.065 mg/mL RORγt, 60 µM 1,8-ANS, pH 7.0; estimated from concentration response curves
T1 construct: His-tag (N); TurboTEV protease cleavage site (ENLYFQG) (N); made in house; host or cells: E. coli (pHIS1, modified pET vector)
T1 sequence (P51449 258-518): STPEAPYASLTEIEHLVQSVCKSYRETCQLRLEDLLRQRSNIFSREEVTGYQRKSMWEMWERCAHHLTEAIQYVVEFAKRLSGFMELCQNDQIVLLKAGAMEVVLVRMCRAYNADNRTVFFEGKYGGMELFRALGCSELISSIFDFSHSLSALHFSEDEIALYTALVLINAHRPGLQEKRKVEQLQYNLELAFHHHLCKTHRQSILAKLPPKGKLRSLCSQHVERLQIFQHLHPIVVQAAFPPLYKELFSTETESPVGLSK
Procedure: This approach is applicable to a wide variety of systems, and rigorous in theoretical interpretation through quantitation of equilibrium binding constants (KD).
The shift in the melting point described as a ΔTm is proportional to the concentration and affinity of the ligand. The compound potency may be compared as a rank order of either ATm values at a single compound concentration or in terms of KD values, estimated from concentration response curves.
ThermoFluor® experiments were carried out using instruments owned by Janssen Research and Discovery, L.L.C. through its acquisition of 3-Dimensional Pharmaceuticals, Inc. 1,8-ANS (Invitrogen) was used as a fluorescent dye. Protein and compound solutions are dispensed into black 384-well polypropylene PCR microplates (Abgene) and overlayed with silicone oil (1 µL, Fluka, type DC 200) to prevent evaporation.
Bar-coded assay plates are robotically loaded onto a thermostatically controlled PCR-type thermal block and then heated at a typical ramp-rate of 1 °C/minute for all experiments. Fluorescence was measured by continuous illumination with UV light (Hamamatsu LC6) supplied via fiber optic and filtered through a band-pass filter (380-400 nm; >6 OD cutoff). Fluorescence emission of the entire 384-well plate was detected by measuring light intensity using a CCD camera (Sensys, Roper Scientific) filtered to detect 500 ± 25 nm, resulting in simultaneous and independent readings of all 384 wells. Images were collected at each temperature, and the sum of the pixel intensity in a given area of the assay plate was recorded versus temperature. Reference wells contained RORyt without compounds, and the assay conditions were as follows: • 0.065 mg/mL RORγt • 60 µM 1,8-ANS • 100 mM Hepes, pH 7.0 • 10 mM NaCl • 2.5 mM GSH • 0.002% Tween-20
Project compounds were arranged in a pre-dosed mother plate (Greiner Bio-one) wherein compounds are serially diluted in 100% DMSO by 1:2 from a high concentration of 10 mM over 12 columns within a series (column 12 is a reference well containing DMSO, no compound). The compounds were robotically dispensed directly into assay plates (1x = 46 nL) using a Hummingbird capillary liquid handling instrument (Digilab). Following compound dispense, protein and dye in buffer was added to achieve the final assay volume of 3 µL, followed by 1 µL of silicone oil.

full-length human RORγt = target: T2, full-length human RORγt (Homo sapiens, UniProt P51449); test: RORγt (full-length human) Reporter Assay (GAL4 luciferase, HEK293T cells); assay type: cell-based; conditions: for inhibition at 2 µM / inhibition at 0.67 µM: HEK-293T; for inhibition at 2 µM: read-out: RORγt (FL) Reporter Assay, % inhibition @ 2 µM; for IC50: overnight (16 to 20 hours) incubation, read-out: RORγt (FL) Reporter Assay, IC50; for inhibition at 0.67 µM: 0.67 µM compound concentration (footnote *), read-out: RORγt (FL) Reporter Assay, % inhibition (values marked *)
T2 construct: expressed in transfected cells; host or cells: HEK293T
T2 sequence (P51449 1-497 isoform P51449-2): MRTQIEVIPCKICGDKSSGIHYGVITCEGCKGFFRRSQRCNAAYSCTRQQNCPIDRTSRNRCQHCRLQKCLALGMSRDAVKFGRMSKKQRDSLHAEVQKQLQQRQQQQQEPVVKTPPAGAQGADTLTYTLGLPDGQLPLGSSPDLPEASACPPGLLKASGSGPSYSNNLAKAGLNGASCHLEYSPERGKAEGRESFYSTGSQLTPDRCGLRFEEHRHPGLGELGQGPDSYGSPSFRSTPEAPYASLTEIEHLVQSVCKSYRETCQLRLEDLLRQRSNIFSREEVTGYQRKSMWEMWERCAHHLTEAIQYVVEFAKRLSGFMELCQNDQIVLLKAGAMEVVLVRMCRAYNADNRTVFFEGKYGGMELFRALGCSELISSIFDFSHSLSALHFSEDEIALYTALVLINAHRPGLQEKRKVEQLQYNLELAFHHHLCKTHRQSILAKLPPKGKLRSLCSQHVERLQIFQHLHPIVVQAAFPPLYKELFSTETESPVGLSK
Procedure: (§1) Compounds were assessed for RORgt functional modulation using either the RORgt ligand binding domain (LBD) reporter assay, or the RORgt full-length (FL) reporter assay.
A reporter assay was used to test functional activity of RORγt modulatory compounds on transcriptional activation driven by full-length human RORγt. Cells used in this assay were transiently co-transfected with three different plasmids, one expressing the GAL4-DNA binding domain (DBD)-RORγt fusion protein under control of a CMV promoter (NH2-Gal4-DBD:RORC-COOH in pCMV-BD, Stratagene #211342), and two reporter plasmids - the firefly luciferase reporter under control of a GAL4 promoter (pFR-Luc 2x GAL4) and Renilla luciferase reporter under control of CMV promoter (pRL-CMV, Promega #E2261). The full-length coding sequence was used for human RORγt, i.e., nucleotides 142-1635 of human RORγt, transcript variant 2, NCBI Accession: NM_001001523.1 (SEQ ID NO:1). HEK293T cells were plated at 35000 per well in 96-well plate in medium of MEM with 8.6% FBS. After 18-22 hours incubation, the transfection was carried out by using a PEI solution with 170.5 ng total DNA/well (50 ng pCMV-BD-ROR plus 20 ng of pFR-Luc reporter and 0.5 ng of pRL-CMV reporter plus 100 ng Carrier DNA (Clontech # 630440) for each well). 4-6 hours after transfection, cells were treated with compounds for overnight in the medium with final concentration of FBS 1.1% and DMSO 0.1%. After overnight (16 to 20 hours) incubation, media were removed and cells were lysed with 20 µL 1x Passive Lysis Buffer (Promega) for 10-15 minutes. Luminescence was measured using a BMG LUMIstar OPTIMA plate reader, after addition of 75 µL/well firefly luciferase buffer, followed by 75 µL/well Renilla luciferase buffer. To calculate the effect of compounds on RORγt activity, firefly values were normalized against values of DMSO only and values of reference compound at saturating concentration, then further normalized against Renilla signals. IC50s were generated by plotting final Renilla normalized data against compound concentration and percent inhibition was calculated against DMSO control.

human RORγt LBD = target: T3, human RORγt LBD (Homo sapiens, UniProt P51449); test: RORγt (LBD) Reporter Assay (GAL4 luciferase, HEK293T cells); assay type: cell-based; conditions: for inhibition at 6 µM: HEK-293T, 6 µM compound; for IC50: compounds for 24 hours
T3 construct: expressed in transfected cells; host or cells: HEK293T
T3 sequence (P51449 258-518): T1 sequence (P51449 258-518)
Procedure: as §1
A reporter assay was used to test functional activity of RORγt modulatory compounds on transcriptional activation driven by the RORγt LBD. Cells used in the assay were co-transfected with two constructs. The first construct, pBIND-RORγt LBD, contained the wild type human RORγt LBD fused to the DNA binding domain of the GAL4 protein. The second construct, pGL4.31 (Promega Cat no. C935A), contained multiple GAL4 responsive DNA elements upstream of firefly luciferase. […] The mutant construct was called pBIND-RORγt-AF2.
The pBIND vector contains the GAL4 DNA Binding Domain (GAL4 DBD) and the renilla luciferase gene under control of the SV40 promoter. Renilla luciferase expression serves as a control for transfection efficiency and cell viability.
The reporter assay was performed by transiently transfecting HEK293T cells with 5 µg of pBIND-RORγt LBD or pBIND-RORγt LBD-AF2 and 5 µg pGL4.31 (Promega Cat no. C935A) using Fugene 6 (Invitrogen Cat no. E2691) at a 1:6 ratio of DNA: Fugene 6 in a T-75 flask in which cells were at least 80% confluent. Twenty four hours after bulk transfection, cells were plated into 96-well plates at 50,000 cells/well in phenol-red free DMEM containing 5% Lipid Reduced FCS and Pen/Strep. Six hours after plating, cells were treated with compounds for 24 hours. Media was removed and cells were lysed with 50 µL 1x Glo Lysis Buffer (Promega). Dual Glo Luciferase Reagent (50 µL/well) was then added and firefly luciferase luminescence was read on an Envision after a ten minute incubation. Finally, Stop and Glo reagent (50 µL/well) was added and renilla luciferase luminescence was read on an Envision after a ten minute incubation. To calculate the effect of compounds on RORγt activity, the ratio of firefly to renilla luciferase was determined and plotted against compound concentration. Agonist compounds increase RORγt-driven luciferase expression, and antagonist or inverse agonist compounds decrease luciferase expression.

SMILES | Kd [1] [µM] | inhibition at 2 µM (full-length human RORγt; 2 µM compound) [%] | IC50 (full-length human RORγt) [µM] | RORγt (FL) Reporter Assay, % inhibition @ 2 µM (full-length human RORγt; 2 µM compound, 2 µM) [%] | inhibition at 0.67 µM (full-length human RORγt) [%] | inhibition at 6 µM (human RORγt LBD) [%] | IC50 (human RORγt LBD) [µM]
COc1nc2ccc(C(O)c3ccc(C#N)cc3)cc2c(Cl)c1Cc1ccc(C#N)cc1 (stereo not drawn) [Example 9, 4-((4-Chloro-3-(4-cyanobenzyl)-2-methoxyquinolin-6-yl)(hydroxy)methyl)benzonitrile] | 0.68 |  | 0.15 |  | 42 |  | 
OC(c1ccncc1)c1ccc2nc(Cl)c(Cc3ccccc3)c(Cl)c2c1 (stereo not drawn) [Example 24, (3-Benzyl-2,4-dichloroquinolin-6-yl)(pyridin-4-yl)methanole•TFA] | 0.23 |  |  |  |  | 41 | > 6
OC(c1ccncc1)c1ccc2nc(Cl)c(-c3ccccc3)c(Cl)c2c1 (stereo not drawn) [Example 25, (2,4-Dichloro-3-phenylquinolin-6-yl)(pyridin-4-yl)methanol•TFA] | 1.2 |  |  |  |  | 47 | > 6
OC(c1ccc(Cl)cc1)c1ccc2nc(Cl)c(-c3ccccc3Cl)c(Cl)c2c1 (stereo not drawn) [Example 26, (4-Chlorophenyl)(2,4-dichloro-3-(2-chlorophenyl)quinolin-6-yl)methanol] | 1.4 |  |  |  |  | 68 | ~3
COc1nc2ccc(C(O)C3CN(C(=O)OC(C)(C)C)C3)cc2c(Cl)c1Cc1ccc(C(F)(F)F)cc1 (stereo not drawn) [Example 32, tert-Butyl-3-((4-chloro-2-methoxy-3-(4-(trifluoromethyl)benzyl)quinolin-6-yl)(hydroxy)methyl)azetidine-1-carboxylate] | 16 |  |  |  |  | 84 | 2.2
OC(c1ccc(Cl)cc1)c1ccc2nc(Cl)c(-c3ccccc3)c(Cl)c2c1 (stereo not drawn) [Example 35, (4-Chlorophenyl)(2,4-dichloro-3-phenylquinolin-6-yl)methanol] | 25 |  |  |  |  | 45 | > 6

Continued, values first:

Kd [1] [µM] | inhibition at 2 µM (full-length human RORγt; 2 µM compound) [%] | IC50 (full-length human RORγt) [µM] | RORγt (FL) Reporter Assay, % inhibition @ 2 µM (full-length human RORγt; 2 µM compound, 2 µM) [%] | inhibition at 0.67 µM (full-length human RORγt) [%] | inhibition at 6 µM (human RORγt LBD) [%] | IC50 (human RORγt LBD) [µM] | SMILES
0.29 | 84 | 0.3 |  |  |  |  | COc1nc2ccc(C(O)c3c(C)noc3C)cc2c(Cl)c1Cc1ccc(C(F)(F)F)cc1 (single isomer, unassigned) [Example 20b, (4-Chloro-2-methoxy-3-(4-(trifluoromethyl)benzyl)quinolin-6-yl)(3,5-dimethylisoxazol-4-yl)methanol]
0.022 |  | 0.023 | 99 |  |  |  | COc1nc2ccc(C(O)c3c(C)noc3C)cc2c(Cl)c1Cc1ccc(C(F)(F)F)cc1 (single isomer, unassigned) [Example 20c, (4-Chloro-2-methoxy-3-(4-(trifluoromethyl)benzyl)quinolin-6-yl)(3,5-dimethylisoxazol-4-yl)methanol]
0.086 | 97 | 0.052 |  |  |  |  | COc1nc2ccc(C(O)c3c(C)noc3C)cc2c(Cl)c1Cc1ccc(C(F)(F)F)cc1 (stereo not drawn) [Example 20a, (4-Chloro-2-methoxy-3-(4-(trifluoromethyl)benzyl)quinolin-6-yl)(3,5-dimethylisoxazol-4-yl)methanol]
0.081 |  |  |  |  | 92 | 0.25 | Cc1ncc(C(O)c2ccc3nc(N4CCC4)c(Cc4ccc(C(F)(F)F)cc4)c(Cl)c3c2)n1C (stereo not drawn) [Example 22a, {2-Azetidin-1-yl-4-chloro-3-[4-(trifluoromethyl)benzyl]quinolin-6-yl}(1,2-dimethyl-1H-imidazol-5-yl)methanol]
0.14 |  |  |  |  | 95 | 0.18 | Cc1ccc(C(O)c2ccc3nc(N4CCC4)c(Cc4ccc(C(F)(F)F)cc4)c(Cl)c3c2)c(C)n1 (stereo not drawn) [Example 23a, {2-Azetidin-1-yl-4-chloro-3-[4-(trifluoromethyl)benzyl]quinolin-6-yl}(2,6-dimethylpyridin-3-yl)methanol]
0.011 |  | 0.02 |  | 95 |  |  | COc1nc2ccc(C(O)c3c(C)nn(C)c3C)cc2c(Cl)c1Cc1ccc(C(F)(F)F)cc1 (stereo not drawn) [Example 34a, (4-Chloro-2-methoxy-3-(4-(trifluoromethyl)benzyl)quinolin-6-yl)(1,3,5-trimethyl-1H-pyrazol-4-yl)methanol]
